Assay results as given in article PMC4192545, “Suramin Inhibits Hsp104 ATPase and Disaggregase Activity” (PLoS ONE, 2014).

How the values were obtained:
[1] = target: T1, Hsp104^WT (Saccharomyces cerevisiae, UniProt P31539); assay: RepA1–70-GFP unfolding assay; assay type: biochemical, yeast; settings: GroELtrap, ATP:ATPγS 1:1
T1 construct: made in house; host or cells: E. coli BL21-DE3 RIL
Procedure: RepA1–70-GFP unfolding was performed as described previously. Varying concentrations of Suramin (0, 25, or 100 µM) were included as noted.
Next, we determined that Suramin hinders the unfoldase activity of Hsp104 using a RepA1–70-GFP substrate ( Figure 4A ). To assess RepA1–70-GFP unfolding without interference from spontaneous refolding, we added GroELtrap, which captures unfolded proteins to prevent refolding, [71].
Figure 4 Suramin inhibits Hsp104-mediated substrate unfolding and translocation. (A) RepA1–70-GFP was incubated with Hsp104^WT and GroELtrap plus a 1∶1 mixture of ATP and ATPγS. GFP unfolding was measured by fluorescence. GroELtrap alone is shown as a negative control (red line). Fluorescence values were normalized to initial raw fluorescence for each sample. Values represent mean ±S.D. (n = 3). (B) FITC-casein (0.1 µM) was incubated at 25°C with HAP (1 µM hexamer) and ClpP (21 µM monomer) plus ATP (5 mM) and an ATP regeneration system. Degradation of FITC-casein was monitored by fluorescence. Initial fluorescence was subtracted from raw fluorescence values for each sample. HAP alone is shown as a negative control (red line). Values represent mean ±S.D. (n = 5).

[2] = target: T2, Hsp104^A503V (Saccharomyces cerevisiae, UniProt P31539, A503V); assay: ATPase assay, Hsp104^A503V; assay type: biochemical, yeast
T2 construct: made in house; host or cells: E. coli BL21-DE3 RIL
T2 sequence (P31539 whole entry A503V): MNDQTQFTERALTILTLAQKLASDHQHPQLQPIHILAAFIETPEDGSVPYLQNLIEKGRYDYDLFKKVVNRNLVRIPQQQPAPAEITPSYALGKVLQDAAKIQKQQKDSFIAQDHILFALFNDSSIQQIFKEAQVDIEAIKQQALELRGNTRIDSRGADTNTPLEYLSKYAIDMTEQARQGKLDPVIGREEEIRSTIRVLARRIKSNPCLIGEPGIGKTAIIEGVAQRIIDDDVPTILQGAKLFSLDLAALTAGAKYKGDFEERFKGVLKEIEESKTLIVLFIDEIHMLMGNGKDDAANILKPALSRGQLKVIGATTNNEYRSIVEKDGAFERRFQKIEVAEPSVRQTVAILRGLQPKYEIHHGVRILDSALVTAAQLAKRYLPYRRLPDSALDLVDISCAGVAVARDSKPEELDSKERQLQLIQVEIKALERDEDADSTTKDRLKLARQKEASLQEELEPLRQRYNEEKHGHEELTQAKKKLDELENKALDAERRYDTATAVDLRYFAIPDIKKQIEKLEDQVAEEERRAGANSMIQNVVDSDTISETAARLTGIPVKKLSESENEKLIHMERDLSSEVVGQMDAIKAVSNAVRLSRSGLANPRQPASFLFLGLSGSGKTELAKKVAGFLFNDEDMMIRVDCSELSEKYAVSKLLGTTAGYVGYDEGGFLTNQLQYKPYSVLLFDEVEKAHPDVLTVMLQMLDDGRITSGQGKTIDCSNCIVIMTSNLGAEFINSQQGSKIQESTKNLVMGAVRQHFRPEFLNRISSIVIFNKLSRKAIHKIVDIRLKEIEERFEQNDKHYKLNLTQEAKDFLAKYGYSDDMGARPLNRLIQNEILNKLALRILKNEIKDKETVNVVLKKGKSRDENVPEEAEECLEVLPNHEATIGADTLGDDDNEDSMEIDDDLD
Procedure: (§1) Wild-type or mutant Hsp104 (0.25 µM monomer) in ATPase buffer (20 mM HEPES-KOH pH 7.4, 20 mM NaCl and 10 mM MgCl2) was incubated for 60 or 10 min at 25°C in the presence of ATP (1 mM) as noted. ATPase activity was assessed by the release of inorganic phosphate determined by using a malachite green phosphate detection kit (Innova).
(§2) Figure 7 Hsp104 variants respond differently to Suramin than Hsp104^WT. (A) Hsp104 variants (0.25 µM monomer) were incubated for 10 min with ATP (1 mM) and varying concentrations of Suramin. The amount of Pi produced was measured by absorbance at 635 nm. Absorbance values were normalized to the absorbance produced by each Hsp104 variant in the absence of inhibitor. Values represent mean ±S.D. (n = 6). (B) Urea-denatured firefly luciferase aggregates were incubated for 90 min at 25°C with Hsp104 variants (1 µM hexamer) plus 1∶1 mixtures of ATP and ATPγS (or ATP alone) and varying concentrations of Suramin. Luciferase reactivation was then determined and normalized to untreated disaggregase activity for each variant in the presence of ATPγS: ATP (or ATP alone). 1∶1 mixtures of ATP and ATPγS were used for Hsp104^WT and Hsp104^T317A, while ATP alone was used for Hsp104^A503V and Hsp104^N728A. Values represent mean ±S.D. (n = 6–12).

[3] = target: T3, Hsp104^T317A (Saccharomyces cerevisiae, UniProt P31539, T317A); assay: ATPase assay, Hsp104^T317A; assay type: biochemical, yeast; settings: read-out: Hsp104^T317A ATPase activity relative to uninhibited protein
T3 construct: made in house; host or cells: E. coli BL21-DE3 RIL
T3 sequence (P31539 whole entry T317A): as the sequence (P31539 whole entry A503V) above, with T317A, V503A counted along it
Procedure: as §1, §2

[4] = target: T4, Hsp104^N728A (Saccharomyces cerevisiae, UniProt P31539, N728A); assay: ATPase assay, Hsp104^N728A; assay type: biochemical, yeast; settings: read-out: Hsp104^N728A ATPase activity relative to uninhibited protein
T4 construct: made in house; host or cells: E. coli BL21-DE3 RIL
T4 sequence (P31539 whole entry N728A): as the sequence (P31539 whole entry A503V) above, with V503A, N728A counted along it
Procedure: as §1, §2

[5] = tested on: Δpdr5 yeast; assay: Thermotolerance of Δpdr5 yeast; assay type: cell-based; settings: Suramin 100 µM, data not shown
[6] = target: T5, Quantilum recombinant luciferase (Photinus pyralis, UniProt P08659); assay: Luciferase activity determination (native luciferase control); assay type: biochemical; settings: Suramin 100 µM, luciferase 50 nM; data not shown
T5 construct: purchased Promega (Madison, WI)
T5 sequence (P08659 whole entry): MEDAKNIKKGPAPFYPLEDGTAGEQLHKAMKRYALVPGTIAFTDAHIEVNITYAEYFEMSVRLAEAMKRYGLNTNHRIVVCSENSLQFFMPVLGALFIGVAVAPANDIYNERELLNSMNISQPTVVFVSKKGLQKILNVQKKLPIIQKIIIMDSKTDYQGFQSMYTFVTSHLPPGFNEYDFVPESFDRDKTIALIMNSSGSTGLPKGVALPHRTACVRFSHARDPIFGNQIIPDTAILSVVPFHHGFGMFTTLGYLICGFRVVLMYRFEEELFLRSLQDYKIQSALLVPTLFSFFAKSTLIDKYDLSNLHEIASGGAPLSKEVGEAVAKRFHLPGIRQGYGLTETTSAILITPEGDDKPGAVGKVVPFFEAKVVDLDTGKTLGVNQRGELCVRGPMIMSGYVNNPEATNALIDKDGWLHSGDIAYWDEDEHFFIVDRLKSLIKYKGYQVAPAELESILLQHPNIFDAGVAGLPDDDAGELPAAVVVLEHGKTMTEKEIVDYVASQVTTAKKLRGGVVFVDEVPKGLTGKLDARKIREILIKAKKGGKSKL
Procedure: Quantilum recombinant luciferase (native) was diluted to 5000, 500, 50, 5 and 0.5 nM in the presence or absence of Suramin. Dilutions were mixed with luciferase assay system (Promega). Luciferase activity was assessed by luminescence measured on a Safire^2 microplate reader.

T1 sequence (P31539 whole entry): as the sequence (P31539 whole entry A503V) above, with V503A counted along it

Q: How did the “Effect on RepA1–70-GFP unfolding by Hsp104” value ([1]; Suramin 25 µM) turn out when `Cc1ccc(C(=O)Nc2ccc(S(=O)(=O)O)c3cc(S(=O)(=O)O)cc(S(=O)(=O)O)c23)cc1NC(=O)c1cccc(NC(=O)Nc2cccc(C(=O)Nc3cc(C(=O)Nc4ccc(S(=O)(=O)O)c5cc(S(=O)(=O)O)cc(S(=O)(=O)O)c45)ccc3C)c2)c1` [Suramin] was run?
A: only mildly inhibited

Q: And the “Effect on RepA1–70-GFP unfolding by Hsp104” value ([1]; Suramin 100 µM)?
A: prevented substrate unfolding

Q: And the “Inhibitor concentration of maximal ATPase inhibition” value ([2]; Hsp104^A503V)?
A: 25 µM

Q: What about the activity at 25 µM ([2]; read-out: Hsp104^A503V ATPase activity relative to uninhibited) of the same molecule?
A: 18%

Q: What about the activity at 100 µM [3] of the same molecule?
A: ~65%

Q: And the activity at 100 µM [4]?
A: ~75%

Q: What about the Effect on thermotolerance [5] of the same molecule?
A: impaired neither

Q: And the “Effect on luciferase activity itself” value [6]?
A: did not inhibit luciferase activity
